Values quoted from earlier work, collected in paper PMC4891657, “Orexin 2 Receptor Antagonism is Sufficient to Promote NREM and REM Sleep from Mouse to Man” (Scientific Reports, 2016).

Legend:
OX2R relative to OX1R = conditions: cited from earlier work
OX2R = test system: OX2R; parameters: method as in PMID 24376396, PMID 24368893; conditions: mice, 50 mg/kg ref 37, 38; cited from earlier work

Q: Which OX1R selective (OX2R relative to OX1R) does the source give for `Cc1cc(NC(=O)Nc2ccc(N(C)C)cc2)c2cc(F)cc(F)c2n1` [SB-408124] here?
A: ~ 64 x

Q: For `Cc1cc(C)nc(N2CC3CN(C(=O)c4c(F)cccc4-n4nccn4)CC3C2)n1` (centres unmarked) [JNJ-42847922], which “binding selectivity for OX2R relative to OX1R” value (OX2R relative to OX1R) is on record?
A: ~ 80 fold

Q: With `CC1(C)OC[C@H](NC(=O)Nc2ccc(Br)cc2Br)[C@H](c2ccccc2)O1` [JNJ-10397049] as the compound, how does the OX2R selective (OX2R relative to OX1R) read?
A: ~ 320 x

Q: What does the source list for `COc1ccnc(N2CCC3(CCCN(Cc4c[nH]c5ccccc45)C3=O)CC2)n1` [IPSU]?
A: calculated OX2R occupancy achieved (OX2R): 48%; OX2R/OX1R selectivity (OX2R relative to OX1R): 6.2 fold
